Entries after “also recorded” stand apart in the source; their conditions may differ.
Assays:
[1] = Photostability of thin films exposed to xenon arc lamp; format: physicochemical; settings: for % λmax (% of original absorbance remaining): absorbance at λmax, irradiated vs unirradiated; for % λmax (% of original absorbance remaining) / % abs total (% of original absorbance remaining): xenon arc lamp 1 hour, thin film; for Photostability, % remaining after irradiation: exposure to the lamp for 1 h; for % abs total (% of original absorbance remaining): sum of absorbance 290-400 nm
Experimental: 1 mL of a 3% solution of the test compound (30 mg of test compound in 1 mL solvent) was prepared in a solvent mix made up of 50% EtOH and 25% capric/caprylic triglyceride and 25% C12-C15 alkyl benzoate. 50 μL of this solution (containing 1.5 mg of test compound) was added carefully to the centre of a glass microscope slide and the volatile components left to evaporate in the dark for at least 3 hours to give a liquid film. […] The irradiation was performed in a fume cupboard where the air flow was sufficient to keep sample T<30° C. One hour's exposure represented a calculated radiation dose (using meter) of approximately 100 MED.
In order to calculate the photostability of the test compounds, the exposed slides were placed in a beaker and rinsed with 2×5 mL EtOH, 1×5 mL MeOH. The combined washings were then added to a 100 mL volumetric flask and made up to 100 mL total volume with methanol. The UV absorbance was then measured in a 10 mm cuvette. The percent stability is measured as the ratio of absorbance at λmax for the irradiated sample compared to the unirradiated sample. As a further measure, a comparison of the sum of the absorbance in the 290-400 nm range was calculated.
The thin films are a good surrogate for testing the stability of a candidate in a sunscreen formulation as they use cosmetic emollients as solvent and are formed at cosmetically relevant concentrations.

[2] = UV/visible absorbance characteristics (λmax, λcrit, ε, E 1%,1 cm); format: physicochemical; settings: for Peak point of absorbance curve (figure legend): unirradiated control, FIGS. 3-5
[3] = Table 5, in M-1 cm-1 (unit assumed)
[4] = Table 6, in M-1 cm-1 (unit assumed)
[5] = Table 1, in M-1 cm-1 (unit assumed)
[6] = Table 2, in M-1 cm-1 (unit assumed)

CC(C)(C)CC(C)(C)N1C=C(C(=O)/C=C/c2ccc(/C=C/C(=O)C3=CN(C(C)(C)CC(C)(C)C)CCC3(C)C)cc2)C(C)(C)CC1
Photostability (%) ([1]; Table 5): <5%

Cc1cc(N2C=C(C(=O)C(F)(F)F)C(C)(C)CC2)ccc1N1C=C(C(=O)C(F)(F)F)C(C)(C)CC1
E (1%, 1 cm) ([2]; Table 5): 1170 | λcrit ([2]; Table 5): 369 nm | λmax ([2]; Table 5): 347 nm | ε [2, 3]: 58853

Cc1c(N2C=C(C(=O)C(F)(F)F)C(C)(C)CC2)cccc1N1C=C(C(=O)C(F)(F)F)C(C)(C)CC1
E (1%, 1 cm) ([2]; Table 5): 1495 | λcrit ([2]; Table 5): 346 nm | λmax ([2]; Table 5): 326 nm | ε [2, 3]: 75074

Cc1ccc(N2C=C(C(=O)C(F)(F)F)C(C)(C)CC2)cc1N1C=C(C(=O)C(F)(F)F)C(C)(C)CC1
E (1%, 1 cm) ([2]; Table 5): 1315 | λcrit ([2]; Table 5): 358 nm | λmax ([2]; Table 5): 339 nm | ε [2, 3]: 66020

COc1ccc(N2C=C(C(=O)C(F)(F)F)C(C)(C)CC2)cc1N1C=C(C(=O)C(F)(F)F)C(C)(C)CC1
E (1%, 1 cm) ([2]; Table 5): 1094 | λcrit ([2]; Table 5): 364 nm | λmax ([2]; Table 5): 340 nm | ε [2, 3]: 56720 | Photostability (%) ([1]; Table 5): 100%

CC1(C)CCN(C(C)(C)C)C=C1C(=O)C(F)F
E (1%, 1 cm) ([2]; Table 5): 1371 | λcrit ([2]; Table 5): 331 nm | λmax ([2]; Table 5): 313 nm | ε [2, 3]: 30868 | Photostability (%) ([1]; Table 5): 43%

CC(F)(F)C(=O)C1=CN(C(C)(C)C)CCC1(C)C
E (1%, 1 cm) ([2]; Table 5): 1285 | λcrit ([2]; Table 5): 331 nm | λmax ([2]; Table 5): 314 nm | ε [2, 3]: 33288 | Photostability (%) ([1]; Table 5): 49%

CC1(C)CCN(C(C)(C)C)C=C1C(=O)CF
E (1%, 1 cm) ([2]; Table 5): 1655 | λcrit ([2]; Table 5): 326 nm | λmax ([2]; Table 5): 310 nm | ε [2, 3]: 37586 | Photostability (%) ([1]; Table 5): 30%

CCCCCCC(=O)C1=CN(c2ccc(N3C=C(C(=O)CCCCCC)C(C)(C)CC3)cc2)CCC1(C)C [1,1′-(1,4-phenylenebis(4,4-dimethyl-1,4,5,6-tetrahydropyridine-1,3-diyl))bis(heptan-1-one)]
UV λmax ([2]; synthesis section): 359 nm | ε ([2]; synthesis section): 70222 M⁻¹ cm⁻¹

CCCCCCCC(=O)C1=CN(C(C)(C)C)CCC1(C)C [319, 2]
% λmax (% of original absorbance remaining) [1]: 45% | Photostability, % remaining after irradiation [1]: over 40% | % abs total (% of original absorbance remaining) [1]: 47%

CC1(C)CCN(C(C)(C)C)C=C1C(=O)/C=C/c1ccc(/C=C/C(=O)C2=CN(C(C)(C)C)CCC2(C)C)cc1 [(2E,2′E)-3,3′-(1,4-phenylene)bis(1-(1-(tert-butyl)-4,4-dimethyl-1,4,5,6-tetrahydropyridin-3-yl)prop-2-en-1-one)]
UV λmax ([2]; synthesis section): 386 nm | ε ([2]; synthesis section): 36404 M⁻¹ cm⁻¹

CCC(=O)C1=CN(CC(C)C)CCC1(C)C [Compound 1]
% λmax (% of original absorbance remaining) [1]: 21% | Photostability, % remaining after irradiation [1]: 21% | % abs total (% of original absorbance remaining) [1]: 24%

CC(C)CN1C=C(C(=O)c2ccccc2)C(C)(C)CC1 [Compound 11]
Photostability (%) ([1]; Table 7, benzoyl derivatives): 59% | % λmax (% of original absorbance remaining) [1]: 59% | Photostability, % remaining after irradiation [1]: 59% | % abs total (% of original absorbance remaining) [1]: 63%

CC(C)CN1C=C(C(=O)C(c2ccccc2)c2ccccc2)C(C)(C)CC1 [Compound 16]
% λmax (% of original absorbance remaining) [1]: 35% | % abs total (% of original absorbance remaining) [1]: 37%

CCC(=O)C1=CN(c2ccccc2)CCC1(C)C [Compound 23]
% λmax (% of original absorbance remaining) [1]: 30% | % abs total (% of original absorbance remaining) [1]: 31%

Br.CCC(=O)C1=CN(CC(C)C)CCC1(C)C [Compound 44]
% λmax (% of original absorbance remaining) [1]: 56% | Photostability, % remaining after irradiation [1]: 56% | % abs total (% of original absorbance remaining) [1]: 56%

CC1(C)CCN(C(C)(C)C)C=C1C(=O)CCCCCCCCC(=O)C1=CN(C(C)(C)C)CCC1(C)C [Compound 54]
E (1%, 1 cm) ([2]; Table 6): 1197 | ε [2, 4]: 59850 | Peak point of absorbance curve (figure legend) [2]: approximately 310 nm | Photostability (%) ([1]; Table 6): 63% | % λmax (% of original absorbance remaining) [1]: 63% | % abs total (% of original absorbance remaining) [1]: 61%

CC1(C)CCN(C(C)(C)C)C=C1C(=O)c1ccncc1 [Compound 58]
Photostability (%) ([1]; Table 7, benzoyl derivatives): 78%

CN(C(=O)C1=CN(C(C)(C)C)CCC1(C)C)c1ccccc1 [Compound 70]
% λmax (% of original absorbance remaining) [1]: 9% | % abs total (% of original absorbance remaining) [1]: 14%

CC1(C)CCN(C(C)(C)C)C=C1C(=O)c1ccc(Br)cc1 [Compound 76]
Photostability (%) ([1]; Table 7, benzoyl derivatives): 85%

CN(C)c1ccc(C(=O)C2=CN(C(C)(C)C)CCC2(C)C)cc1 [Compound 86]
Photostability (%) ([1]; Table 7, benzoyl derivatives): 30% | Photostability, % remaining after irradiation [1]: 30%

CC(C)(C)Oc1ccc(C(=O)C2=CN(C(C)(C)C)CCC2(C)C)cc1 [Compound 88]
Photostability (%) ([1]; Table 7, benzoyl derivatives): 38%

CC1(C)CCN(C(C)(C)C)C=C1C(=O)CC(=O)c1ccccc1 [Compound 94]
% λmax (% of original absorbance remaining) [1]: 11% | Photostability, % remaining after irradiation [1]: less than 20% | Colour change on exposure to irradiation ([1]; film): goes from bright yellow to colourless; also recorded: became perfectly colourless | % abs total (% of original absorbance remaining) [1]: 21%

CC1(C)CCN(C(C)(C)C)C=C1C(=O)C(F)(F)F [Compound 98]
E (1%, 1 cm) ([2]; Table 1): 1380 | λcrit ([2]; Table 1): 331 nm | λmax ([2]; Table 1): 315 nm | ε [2, 5]: 36298 | E (1%, 1 cm) ([2]; Table 6): 1380 | λcrit ([2]; Table 6): 331 nm | λmax ([2]; Table 6): 315 nm | ε [2, 4]: 36298 | Peak point of absorbance curve (figure legend) [2]: approximately 320 nm | Photostability (%) ([1]; Table 6): 89% | % λmax (% of original absorbance remaining) [1]: 88% | Photostability, % remaining after irradiation [1]: 88% | % abs total (% of original absorbance remaining) [1]: 84%

CCCCNc1ccc(C(=O)C2=CN(C(C)(C)C)CCC2(C)C)cc1 [Compound 102]
E (1%, 1 cm) ([2]; Table 1): 628

CC1(C)C=CN(c2ccccc2)C=C1C(=O)C(F)(F)F [Compound 105]
E (1%, 1 cm) ([2]; Table 1): 263 | λcrit ([2]; Table 1): 391 nm | λmax ([2]; Table 1): 384 nm | ε [2, 5]: 7393

CC1(C)CCN(c2ccc(Cc3ccc(N4C=C(C(=O)C(F)(F)F)C(C)(C)CC4)cc3)cc2)C=C1C(=O)C(F)(F)F [Compound 108]
E (1%, 1 cm) ([2]; Table 1): 1051 | λcrit ([2]; Table 1): 363 nm | λmax ([2]; Table 1): 341 nm | ε [2, 5]: 60770

CC1(C)CCN(c2ccc(Oc3ccc(N4C=C(C(=O)C(F)(F)F)C(C)(C)CC4)cc3)cc2)C=C1C(=O)C(F)(F)F [Compound 111]
E (1%, 1 cm) ([2]; Table 1): 923 | λcrit ([2]; Table 1): 365 nm | λmax ([2]; Table 1): 343 nm | ε [2, 5]: 53548

CC1(C)CCN(c2ccc(N3C=C(C(=O)C(F)(F)F)C(C)(C)CC3)cc2)C=C1C(=O)C(F)(F)F [Compound 116]
E (1%, 1 cm) ([2]; Table 1): 1120 | λcrit ([2]; Table 1): 386 nm | λmax ([2]; Table 1): 367 nm | ε [2, 5]: 54658 | E (1%, 1 cm) ([2]; Table 2): 1120 | λcrit ([2]; Table 2): 387 nm | λmax ([2]; Table 2): 367 nm | ε [2, 6]: 54658

CC1(C)CCN(c2ccc(N3C=C(C(=O)C(F)(F)F)C(C)(C)CC3)cc2)CC1 [Compound 117]
E (1%, 1 cm) ([2]; Table 1): 657 | λcrit ([2]; Table 1): 382 nm | λmax ([2]; Table 1): 349 nm | ε [2, 5]: 25890

CCC(=O)C1=CN(c2ccc(Oc3ccc(N4C=C(C(=O)CC)C(C)(C)CC4)cc3)cc2)CCC1(C)C [Compound 118]
ε [2, 5]: 56063

CC(C)CN1C=C(C(=O)C(C)(C)C)C(C)(C)CC1 [Compound 145]
% λmax (% of original absorbance remaining) [1]: 60% | % abs total (% of original absorbance remaining) [1]: 60%

CC(C)CN1C=C(C(=O)C(F)(F)F)C(C)(C)CC1 [Compound 146]
% λmax (% of original absorbance remaining) [1]: 89% | % abs total (% of original absorbance remaining) [1]: 88%

CC1(C)CCN(c2ccc(N3C=C(C(=O)C(F)(F)C(F)(F)C(F)(F)F)C(C)(C)CC3)cc2)C=C1C(=O)C(F)(F)C(F)(F)C(F)(F)F [Compound 158]
E (1%, 1 cm) ([2]; Table 1): 750 | λcrit ([2]; Table 1): 388 nm | λmax ([2]; Table 1): 369 nm | ε [2, 5]: 51600 | E (1%, 1 cm) ([2]; Table 2): 750 | λcrit ([2]; Table 2): 388 nm | λmax ([2]; Table 2): 369 nm | ε [2, 6]: 51600

Cc1ccc(NC(=O)C2=CN(C(C)(C)CC(C)(C)C)CCC2(C)C)cc1NC(=O)C1=CN(C(C)(C)CC(C)(C)C)CCC1(C)C [Compound 161]
% λmax (% of original absorbance remaining) [1]: 55%

CC1(C)CCN(C(C)(C)C)C=C1C(=O)c1ccccc1 [Compound 179]
Photostability, % remaining after irradiation [1]: 76%

CC1(C)CCN(C(C)(C)C)C=C1C(=O)c1c(F)cccc1F [Compound 184]
Photostability (%) ([1]; Table 7, benzoyl derivatives): 90%

CC1(C)CCN(C(C)(C)C)C=C1C(=O)c1c(F)c(F)c(F)c(F)c1F [Compound 185]
λmax ([2]; Table 7, benzoyl derivatives): 315 nm

CCCCC(CC)CN(c1ccc(C(=O)C2=CN(C(C)(C)C)CCC2(C)C)cc1)c1ccc(C(=O)C2=CN(C(C)(C)C)CCC2(C)C)cc1 (stereo not drawn) [drawing 95, (((2-ethylhexyl)azanediyl)bis(4,1-phenylene))bis((1-(tert-butyl)-4,4-dimethyl-1,4,5,6-tetrahydropyridin-3-yl)methanone)]
UV λmax ([2]; synthesis section): 316 nm | ε ([2]; synthesis section): 41598 M⁻¹ cm⁻¹

CC1(C)CCN(C(C)(C)C)C=C1C(=O)C(F)(F)C(F)(F)C(F)(F)C(=O)C1=CN(C(C)(C)C)CCC1(C)C [drawing 123]
E (1%, 1 cm) ([2]; Table 5): 1177 | λcrit ([2]; Table 5): 337 nm | λmax ([2]; Table 5): 317 nm | ε [2, 3]: 63346

Source: patent US10315994B2, “Photostable compounds, absorbing compounds and uses thereof” (Commonwealth Scientific and Industrial Research Organisation, priority 2015, dated 2019)
